The values that follow come from PMC3954708 (Bioorganic & medicinal chemistry letters, 2013).

For data set [1] the following is noted: cited from earlier work.
Data set [2] in a line: microsomal stability with rat liver microsomes and NADPH, LCMS analysis. The format is in vitro ADME. The settings on record: liver microsomes. On the technique in general: Liver microsomes are a subcellular fraction often used to study metabolism.
Data set [3] has as its target T1, UT-B (Homo sapiens, UniProt Q13336).
T1 sequence (Q13336 1-389): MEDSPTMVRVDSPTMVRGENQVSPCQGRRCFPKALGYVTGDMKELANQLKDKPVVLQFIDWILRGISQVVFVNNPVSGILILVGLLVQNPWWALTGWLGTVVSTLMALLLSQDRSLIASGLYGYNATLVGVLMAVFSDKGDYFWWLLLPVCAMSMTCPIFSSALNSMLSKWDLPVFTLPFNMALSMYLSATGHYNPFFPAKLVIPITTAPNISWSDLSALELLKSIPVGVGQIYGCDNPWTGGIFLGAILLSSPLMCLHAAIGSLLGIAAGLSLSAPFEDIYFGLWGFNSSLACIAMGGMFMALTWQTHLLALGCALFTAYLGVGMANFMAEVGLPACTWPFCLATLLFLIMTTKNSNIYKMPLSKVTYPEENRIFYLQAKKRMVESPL
The data set can be described thus: erythrocyte lysis assay for UT-B inhibition. The data set is classed as cell-based, mouse.

In data set [4] the test system is UT-B. The note with it: cited from earlier work.
For data set [5] the following is noted: administration to mice; cited from earlier work.
[6] abbreviates: IC50 (inhibitory potency, abstract), UT-B inhibition.
The mark [7] stands for this setting: IC50 (UT-B inhibition activity), mouse erythrocyte lysis assay (n = 3), fit to single-site saturation model.

A value given as a limit tells only on which side of the number the result lay.

The term share remaining denotes what is left of the initial amount, in per cent. The low end stands for a greater loss, the high end for greater stability. For the molecule `CC(F)(F)c1ccc(S(=O)(=O)c2nnn3c2nc(NCc2cccs2)c2sccc23)cc1` [Compound 1c], in data set [1], the “microsomal degradation / hepatic oxidation” value is recorded as “resisted microsomal degradation”. This molecule came in with a fraction remaining at 0.5 h in data set [2] of 96%.
As a reminder, the IC50 is the concentration at which inhibition is half-maximal. The low end stands for higher potency, the high end for lower potency. On UT-B [3] (setting [6]), `Cc1csc(CNc2nc3c(S(=O)(=O)c4ccc(C(C)(F)F)cc4)nnn3c3ccsc23)c1` [Compound 4a] yielded an IC50 of roughly 40 nM.
Regarding `CC(F)(F)c1ccc(S(=O)(=O)c2nnn3c2nc(NCc2ccsc2)c2sccc23)cc1` [Compound 4b], the IC50 on UT-B [3] (setting [6]) was roughly 40 nM.
Take `CC(F)(F)c1ccc(S(=O)(=O)c2nnn3c2nc(NCC2CC2)c2sccc23)cc1` [Compound 4e]: the IC50 on UT-B [3] (setting [7]) is greater than 800 nM.
Still for that read-out and setting: to `CC(F)(F)c1ccc(S(=O)(=O)c2nnn3c2nc(NCc2ccccc2)c2sccc23)cc1` [Compound 4d] belongs greater than 800 nM.
`CCc1ccc(S(=O)(=O)c2nnn3c2nc(NCc2cccs2)c2sccc23)cc1` [Compound 1a]: in the data set with UT-B [4], the “mechanism of UT-B inhibition” value is “competitive mechanism”. Besides, in data set [5], the “effect on urine osmolality” value is reported as “reduced urine osmolality” and the “effect on urine output” value was “increased urine output”. The “microsomal degradation / hepatic oxidation” value in data set [1] is “underwent rapid oxidation by hepatic enzymes”.
On to `CC(F)(F)c1ccc(S(=O)(=O)c2nnn3c2nc(NCC2CCC2)c2sccc23)cc1` [Compound 4f], for which the IC50 on UT-B [3] (setting [7]) was greater than 800 nM.
